The results in this text go back to patent US12559492B2, “BRAF degraders” (C4 Therapeutics, Inc., priority 2020, dated 2026).

The test has as its target BRAF^V600E protein (Homo sapiens, UniProt P15056, V600E). In words: HiBiT cellular BRAF V600E degradation assay. The test is classed as cell-based. To be noted: 24 h incubation; for DC50: A375.10 cells (HiBiT tag knocked in at N-terminal of BRAF V600E), concentration at which 50% of total cellular BRAF V600E is degraded; for Emax: read-out: HiBit 24 h Emax. On the technique in general: HiBiT is a short tag that completes a luciferase, so light tracks the accessible tagged protein.

[1] abbreviates: A375.10 cells, Emax = amount of residual protein remaining in the cell after compound treatment.

Sequence of BRAF^V600E protein (P15056 whole entry V600E): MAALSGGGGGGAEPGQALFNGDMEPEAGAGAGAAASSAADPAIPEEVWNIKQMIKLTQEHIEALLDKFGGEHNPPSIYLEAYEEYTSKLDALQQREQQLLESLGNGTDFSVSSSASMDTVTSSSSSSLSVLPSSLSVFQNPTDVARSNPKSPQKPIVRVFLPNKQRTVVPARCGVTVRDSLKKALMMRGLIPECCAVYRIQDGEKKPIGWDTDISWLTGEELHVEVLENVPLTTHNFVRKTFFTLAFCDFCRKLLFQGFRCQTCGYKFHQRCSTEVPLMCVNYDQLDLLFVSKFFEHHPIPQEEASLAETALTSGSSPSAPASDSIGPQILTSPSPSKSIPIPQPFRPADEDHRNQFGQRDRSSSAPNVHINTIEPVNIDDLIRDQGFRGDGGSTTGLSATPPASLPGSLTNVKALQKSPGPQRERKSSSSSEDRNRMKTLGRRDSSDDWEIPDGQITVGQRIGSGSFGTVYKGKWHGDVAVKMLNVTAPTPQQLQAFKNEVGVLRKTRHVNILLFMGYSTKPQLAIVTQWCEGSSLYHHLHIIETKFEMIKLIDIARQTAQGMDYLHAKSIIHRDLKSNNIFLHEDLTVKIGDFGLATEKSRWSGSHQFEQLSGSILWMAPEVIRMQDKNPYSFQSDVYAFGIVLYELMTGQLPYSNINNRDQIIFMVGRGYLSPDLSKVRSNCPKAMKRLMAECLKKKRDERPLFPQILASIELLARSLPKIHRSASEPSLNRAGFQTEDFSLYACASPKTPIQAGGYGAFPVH

With `CC(C)S(=O)(=O)Nc1ccc(F)c(C(=O)c2c[nH]c3ncc(-c4cnc(N5CCN(C(=O)CN6CCC(c7ccc8c(N9CCC(=O)NC9=O)nn(C)c8c7)CC6)CC5)nc4)cc23)c1F` [Example 10, N-[3-[5-[2-[4-[2-[4-[3-(2,4-dioxohexahydropyrimidin-1-yl)-1-methyl-indazol-6-yl]-1-piperidyl]acetyl]piperazin-1-yl]pyrimidin-5-yl]-1H-pyrrolo[2,3-b]pyridine-3-carbonyl]-2,4-difluoro-phenyl]propane-2-sulfonamide], the 50% degradation concentration (DC50) stood at 4.45 nM. For the same molecule, under setting [1], the maximum response (Emax) amounted to 8.46%.

The molecule `CCN(C)S(=O)(=O)Nc1ccc(F)c(C(=O)c2c[nH]c3ncc(-c4cnc(N5CCN(C(=O)CN6CCC(c7ccc8c(N9CCC(=O)NC9=O)nn(C)c8c7)CC6)CC5)nc4)cc23)c1F` [Example 34, 3-(2,4-dioxohexahydropyrimidin-1-yl)-6-[1-[2-[4-[5-[3-[3-[[ethyl(methyl)sulfamoyl]amino]-2,6-difluoro-benzoyl]-1H-pyrrolo[2,3-b]pyridin-5-yl]pyrimidin-2-yl]piperazin-1-yl]-2-oxo-ethyl]-4-piperidyl]-1-methyl-indazole] registered a half-maximal degradation concentration (DC50) of 2.52 nM. Further, the Emax under setting [1] turned out to be 8.14%.

`CCN(C)S(=O)(=O)Nc1ccc(F)c(C(=O)c2c[nH]c3ncc(-c4ccc(N5CCN(C(=O)NC6CCN(c7ccc(NC8CCC(=O)NC8=O)cc7F)CC6)CC5)nc4)cc23)c1F` (stereo not drawn) [Example 140, N-[1-[4-[(2,6-dioxo-3-piperidyl)amino]-2-fluoro-phenyl]-4-piperidyl]-4-[5-[3-[3-[[ethyl(methyl)sulfamoyl]amino]-2,6-difluoro-benzoyl]-1H-pyrrolo[2,3-b]pyridin-5-yl]-2-pyridyl]piperazine-1-carboxamide] registered a half-maximal degradation concentration (DC50) of 15.2 nM. Under setting [1], the Emax is 8.77%.

On to `CCN(C)S(=O)(=O)Nc1ccc(F)c(C(=O)c2c[nH]c3ncc(-c4ccc(N5CCC(NCC(=O)N6CCC(c7ccc(OC8CCC(=O)NC8=O)cc7)CC6)CC5)nc4)cc23)c1F` (stereo not drawn) [Example A109, 5-[6-[4-[[2-[4-[4-(2,6-Dioxopiperidin-3-yl)oxyphenyl]piperidin-1-yl]-2-oxoethyl]amino]piperidin-1-yl]pyridin-3-yl]-3-[3-[[ethyl(methyl)sulfamoyl]amino]-2,6-difluorobenzoyl]-1H-pyrrolo[2,3-b]pyridine; formic acid], for which the DC50 was found to be 44 nM. Under setting [1], the maximal response (Emax) was determined as 13%.

With `CCN(C)S(=O)(=O)Nc1ccc(F)c(C(=O)c2c[nH]c3ncc(-c4cnc(N5CCC(NC(=O)N6CCC(c7ccc(NC8CCC(=O)NC8=O)cn7)CC6)CC5)nc4)cc23)c1F` (stereo not drawn) [Example A40, 4-[5-[(2,6-Dioxopiperidin-3-yl)amino]pyridin-2-yl]-N-[1-[5-[3-[3-[[ethyl(methyl)sulfamoyl]amino]-2,6-difluorobenzoyl]-1H-pyrrolo[2,3-b]pyridin-5-yl]pyrimidin-2-yl]piperidin-4-yl]piperidine-1-carboxamide;formic acid], the DC50 amounted to 8 nM. Further, the maximum response (Emax) under setting [1] was found to be 17%.

In the case of `CCN(C)S(=O)(=O)Nc1ccc(F)c(C(=O)c2c[nH]c3ncc(-c4ccc(CN5CCN(C(=O)CN6CCN(c7ccc(NC8CCC(=O)NC8=O)cc7)CC6)CC5)cc4)cc23)c1F.O=C(O)C(F)(F)F` (stereo not drawn) [Example A24, 5-[4-[[4-[2-[4-[4-[(2,6-Dioxopiperidin-3-yl)amino]phenyl]piperazin-1-yl]acetyl]piperazin-1-yl]methyl]phenyl]-3-[3-[[ethyl(methyl)sulfamoyl]amino]-2,6-difluorobenzoyl]-1H-pyrrolo[2,3-b]pyridine; 2,2,2-trifluoroacetic acid], the DC50 worked out at 30 nM. In addition, the “HiBit 24 h Emax” value under setting [1] is 13%.

The molecule `CCN(C)S(=O)(=O)Nc1ccc(F)c(C(=O)c2c[nH]c3ncc(-c4ccc(CN5CCN(C(=O)CN6CCC(c7ccc(NC8CCC(=O)NC8=O)cc7)CC6)CC5)nc4)cc23)c1F` (stereo not drawn) [Example A9, 5-[6-[[4-[2-[4-[4-[(2,6-Dioxopiperidin-3-yl)amino]phenyl]piperidin-1-yl]acetyl]piperazin-1-yl]methyl]pyridin-3-yl]-3-[3-[[ethyl(methyl)sulfamoyl]amino]-2,6-difluorobenzoyl]-1H-pyrrolo[2,3-b]pyridine] gave a half-maximal degradation concentration (DC50) of 30 nM. Also, the Emax under setting [1] was 14%.

Molecule `CCN(C)S(=O)(=O)Nc1ccc(F)c(C(=O)c2c[nH]c3ncc(-c4ccc(N5CCN(C(=O)CN6CCC(c7ccc(O[C@H]8CCC(=O)NC8=O)cc7)CC6)CC5)nc4)cc23)c1F` [Example A121, 5-[6-[4-[2-[4-[4-[(3S)-2,6-Dioxopiperidin-3-yl]oxyphenyl]piperidin-1-yl]acetyl]piperazin-1-yl]pyridin-3-yl]-3-[3-[[ethyl(methyl)sulfamoyl]amino]-2,6-difluorobenzoyl]-1H-pyrrolo[2,3-b]pyridine] gave a 50% degradation concentration (DC50) of 12 nM. Further, under setting [1], the maximum response (Emax) amounted to 8%.

In the case of `CCN(C)S(=O)(=O)Nc1ccc(F)c(C(=O)c2c[nH]c3ncc(-c4cnc(N5CC6(C5)CN(C5CCN(c7ccc(NC8CCC(=O)NC8=O)cc7F)CC5)C6)nc4)cc23)c1F` (stereo not drawn) [Example 203, 5-[2-[2-[1-[4-[(2,6-dioxo-3-piperidyl)amino]-2-fluoro-phenyl]-4-piperidyl]-2,6-diazaspiro[3.3]heptan-6-yl]pyrimidin-5-yl]-3-[3-[[ethyl(methyl)sulfamoyl]amino]-2,6-difluoro-benzoyl]-1H-pyrrolo[2,3-b]pyridine], it took 2.28 nM to reach half-maximal degradation (DC50). Moreover, the Emax under setting [1] was 5.13%.

With `CCCS(=O)(=O)Nc1ccc(F)c(C(=O)c2c[nH]c3ncc(-c4cnc(N5CCN(C(=O)CN6CCC(c7ccc(NC8CCC(=O)NC8=O)cc7)CC6)CC5)nc4)cc23)c1F` (stereo not drawn) [Example 1, N-[3-[5-[2-[4-[2-[4-[4-[(2,6-dioxo-3-piperidyl)amino]phenyl]-1-piperidyl]acetyl]piperazin-1-yl]pyrimidin-5-yl]-1H-pyrrolo[2,3-b]pyridine-3-carbonyl]-2,4-difluoro-phenyl]propane-1-sulfonamide], it took 0.79 nM to reach half-maximal degradation (DC50). For the same molecule, under setting [1], the Emax turned out to be 7.81%.

Regarding `CCN(C)S(=O)(=O)Nc1ccc(F)c(C(=O)c2c[nH]c3ncc(-c4ccc(N5CCN(C(=O)CN6CCC(N7CCN(C8CCC(=O)NC8=O)C(=O)C7)C(F)(F)C6)CC5)nc4)cc23)c1F` (stereo not drawn) [Example 171, 5-[6-[4-[2-[4-[4-(2,6-dioxo-3-piperidyl)-3-oxo-piperazin-1-yl]-3,3-difluoro-1-piperidyl]acetyl]piperazin-1-yl]-3-pyridyl]-3-[3-[[ethyl(methyl)sulfamoyl]amino]-2,6-difluoro-benzoyl]-1H-pyrrolo[2,3-b]pyridine], the DC50 was found to be 5.87 nM. Moreover, under setting [1], the maximal effect (Emax) was 7.61%.

`CCN(C)S(=O)(=O)Nc1ccc(F)c(C(=O)c2c[nH]c3ncc(-c4ccc(N5CCC(NC(=O)CN6CCC(c7ccc(NC8CCC(=O)NC8=O)cn7)CC6)CC5)cc4)cc23)c1F` (stereo not drawn) [Example A56, 2-[4-[5-[(2,6-dioxopiperidin-3-yl)amino]pyridin-2-yl]piperidin-1-yl]-N-[1-[4-[3-[3-[[ethyl(methyl)sulfamoyl]amino]-2,6-difluorobenzoyl]-1H-pyrrolo[2,3-b]pyridin-5-yl]phenyl]piperidin-4-yl]acetamide; formic acid] yielded a DC50 of 20 nM. Also, the Emax under setting [1] stood at 11%.

As usually defined, the DC50 is the concentration at which degradation of the target reaches its halfway point. What is called Emax is the maximal effect, on the per cent scale that the assay sets.
